From patent US20240358705A1, “COMPOSITIONS AND METHODS FOR TREATMENT OF CANCER” (Board of Supervisors of Louisiana State University and …, priority 2021, published 2024)

Tests used:
CD8 T cells = test: Single-cell RNA sequencing; assay type: cell-based, mouse; conditions: 10 μM, 16 hours
Description: Treated CD8 T cells were prepared following the in vitro T cell activation method and incubated for 16 hours at 37° C., […]. Treated T cells were mixed with treated BM-MDSCs at a […] (T cell): 30% (BM-MDSC) ratio moments before analysis. 10,000 cells with greater than 90% viability were used in the analysis at a concentration of 1,000 cells/μl. Barcoded cDNA libraries were prepared using a chromium next GEM single-cell 3′ reagent kit v3.1 (10× Genomics #1000127) following the manufacturer's instructions. […] (Agilent, Santa Clara, CA) DNA was subsequently quantified by fluorometry using a Qubit dsDNA high sensitivity assay kit (Invitrogen #Q32854). DNA libraries were pooled in equimolar ratios and sequenced using an Illumina NextSeq 500 (Illumina, San Diego, CA) following 10× Genomics' instructions. […] Doublets were subsequently removed using DoubletFinder (https://github.com/chris-mcginnis-ucsf/DoubletFinder). An unsupervised clustering and plotting using UMAPs was completed on the remaining cells. CD8 T cells were identified by first conducting CD3 followed by CD8 refinement and reclustering. To characterize the CD8 subsets, the top 50 differentially expressed genes between each subcluster were compared against publicly available datasets, and known genes associated with activation, exhaustion, and memory T cell states. To determine changes in metabolism and cytotoxicity, a curated list of genes associated with glucose, fatty acid, lipid metabolism, and cytotoxicity were generated. Average gene expression by treatment group was determined for each gene and visualized by heatmap.

OT-I CD8 T cells = test: In vitro cytotoxicity assay (E.G7-OVA target cells); assay type: cell-based, mouse; conditions: CD8 T cells treated 72 hours (10 μM printed for GLPG1205)
Description: Lymph nodes and spleen were isolated from wild-type C57BL/6N mice. Tissue was mechanically dissociated with the back of a syringe plunger and passed through a […]. […] Treated cells were incubated at 37° C., 5% CO2 for the designed study duration. Treated OT-I CD8 T cells were prepared following the in vitro T cell activation method. Non-target EL4 cells (CFSE low—0.2 μM) and target E.G7-OVA cells (CFSE high—[…]) were prepared following the CFSE labeling protocol. Cells were subsequently washed, pelleted, resuspended at 1×10^6 cells/ml, and mixed at 1:1 ratio. 100 μl of the mixed cells were plated into a 96-well flat bottom plate.

[1] = cited from earlier work
BM-MDSCs = test: MDSC suppression assay; assay type: cell-based, mouse; conditions: for percent proliferation of CD3 T cells co-cultured with treated BM-MDSCs: DMSO control 40.73%
Description: 24-well plates were coated with […] anti-mouse CD3e and anti-mouse CD28 resuspended in PBS for two hours at 37° C., 5% C02. PBS containing coating antibodies were then removed and 1×10^6 naïve CFSE CD3 T cells in 1 ml was added to each well. Treated BM-MDSCs were removed using a rubber policeman. […] Cells were harvested and stained following the immune profiling by flow cytometry method. MDSC suppressive capacity was measured by their ability to inhibit CD3 T cell proliferation measured by CFSE dilution.

O=c1nc(OC[C@@H]2COCCO2)cc2n1CCc1cc(C#CC3CC3)ccc1-2 [GLPG1205, 9-Cyclopropylethynyl-2-((S)-1-[1,4]dioxan-2-ylmethoxy)-6,7-dihydropyrimido[6,1-a]isoquinolin-4-one]
average expression of genes of glucose, fatty acid, lipid metabolism and cytotoxicity (heatmap) (CD8 T cells): dramatic increase in gene expression | total number of CD8 T cells compared to DMSO control (CD8 T cells): increase in total CD8 | fraction of CD8 T cells identified as naïve (CD8 T cells; DMSO 26.6%): 16.2% | fraction of CD8 T cells identified as early-effector (CD8 T cells; DMSO 27.8%): 41.3% | fraction of CD8 T cells identified as effector (CD8 T cells; DMSO 45.6%): 42.5% | killing capacity compared to DMSO control (percent specific lysis) (OT-I CD8 T cells): significantly improved killing capacity | inflammatory response in ulcerative colitis ([1]; in vivo): unable to improve the inflammatory response | adverse outcome in ulcerative colitis study ([1]; led to the drug's discontinuation): worsening of colitis in certain patients | percent proliferation of CD3 T cells co-cultured with treated BM-MDSCs (BM-MDSCs; BM-MDSCs treated with 3 μM): 64.99% | percent proliferation of CD3 T cells co-cultured with treated BM-MDSCs (BM-MDSCs; BM-MDSCs treated with 10 μM): 62.49% | T cell proliferation in mixed culture of MDSC and T cells (BM-MDSCs; FIG. 6 Panel A): allows T cells to proliferate (multiply) better
